Test results published in patent publication US11559528B2, “BACE1 inhibition for the treatment of cancer” (The Cleveland Clinic Foundation, priority 2019, dated 2023).

Tests used:
[1] = system: GBM xenografts derived from T4121 GSCs; assay: Intracranial GBM xenografts from T4121 glioma stem cells; format: in vivo, mouse
[2] = system: intracranial xenografts of lung ADC (H1002); assay: Intracranial xenografts of lung adenocarcinoma (H1002) brain metastases; format: in vivo, mouse; conditions: 30 mg/kg once daily oral
Experimental: The lung cancer cells (H1002, ADC) expressing luciferase were transplanted into mouse brains to establish intracranial xenografts of lung ADC. […] Data are shown as mean±SEM. * p<0.05, *** p<0.001, and NS (not significant)≥0.05; Student's t-test.
The lung ADC cancer cells (H1002) expressing luciferase were transplanted into mouse brains to establish intracranial xenografts of lung ADC. […] IVIS was performed twice per week to monitor tumor growth. When humane endpoints occur, mouse was anesthetized and brains with xenografts were harvested for further analyses. […] Frozen xenograft sections were immunostained with a specific antibody against cleaved caspase-3 (in green) and counterstained with DAPI (in blue). […] Frozen xenograft sections were immunostained with a specific antibody against cleaved GLUT1 (in green) and counterstained with DAPI (in blue). […] Frozen xenograft sections were immunostained with a specific antibody against Ki-67 (in green) and counterstained with DAPI (in blue). […] Data are shown as mean±SEM of at least 6 images from 3-5 mice. * p<0.05 and ** p<0.01; Student's t-test.
In brief, GSCs (T4121 and T387) or lung ADC cells (H1002) expressing luciferase were injected into the right cerebral cortex at a depth of 3.5 mm. Seven days after the implantation, IVIS was performed twice per week to monitor the tumor growth under the Spectrum CT Imaging System (PerkinElmer) before and after treatment. […] Mouse brains bearing the tumors were collected for immunofluorescent, histochemical and histological analyses.
Primary antibodies were added to the sections or cells and incubated overnight at 4° C. […] After the incubation of the primary antibodies, the sections or cells were washed three times with cold PBS for five minutes each and then incubated with the secondary antibodies for one hour at room temperature. […] Finally, images were captured by a fluorescence microscopy (Leica DM4000) and further analyzed with ImageJ software.

[3] = system: bone marrow-derived macrophages (BMDMs); assay: Phagocytosis assay, bone marrow-derived macrophages against glioma cells; format: cell-based, mouse; conditions: MK-8931 50 μg/mL two days; T4121; p<0.001
[4] = system: iPSC-derived M2 macrophages; assay: Fluorescent phagocytosis screening assay, iPSC-derived M2 macrophages against glioma cells; format: cell-based, human
GSCs (T387 and T4121) = assay: Immunoblot of apoptotic markers in glioma stem cells; format: cell-based, human; conditions: MK-8931 50 μg/mL, different times
Experimental: (§1) FIG. 16, panels A-E. MK-8931 Treatment Had Little Effect on Glioma Stem Cells. (A and B) Tumorsphere formation assay to examine the effect of MK-8931 treatment on glioma stem cells (GSCs). Representative images (A) of tumorsphere derived from T4121 GSCs treated with MK-8931 (50 μg/mL) or the vehicle control. Quantifications (B) show the number and size of tumorsphere derived from T4121 GSCs treated with MK-8931 (50 μg/mL) or the control. Data are shown as mean±SEM. NS (not significant)≥0.05, Student's t-test. […] GAPDH was blotted as loading control. (D) Immunoblot analysis of the apoptotic markers cleaved-PARP and cleaved caspase-3 in GSCs (T387 and T4121) treated with MK-8931 (50 μg/mL), etoposide (Etop, 1 μM), or the vehicle control for different time as indicated. GAPDH was blotted as loading control. […] Ctl: Control; Etop: Etoposide. (E) Cell viability assay to examine the effect of MK-8931 treatment on proliferation of glioma stem cells. […] Data are shown as mean±SEM. NS (not significant)≥0.05, Student's t-test.

H1002 lung cancer cells = assay: Subcutaneous lung cancer xenografts (H1002); format: in vivo, mouse; conditions: 50 mg/kg once daily oral gavage, from two weeks after inoculation; p<0.01
Experimental: (A) Effects of BACE1 inhibitors on lung cancer cell proliferation. H1002 and H146 lung cancer cells were treated with the indicated concentrations of the BACE1 inhibitor AZD3293, MK-8931, AZD3839, or PF-06751979 (PF) for 72 hours. Cell viability was assessed by cell titer assay (n=3). (B-D) A preclinical trial of MK-8931 for lung cancer treatment in xenograft models. H1002 lung cancer cells (5×106) were transplanted into mouse right flank through subcutaneous injection to establish subcutaneous lung cancer xenografts. […] Tumors dissected from mice of each group were photographed (C) and weighed (D). […] Data are shown as mean SEM. p **<0.01, Student's t-test.

T4121 GSCs = assay: Tumorsphere formation assay; format: cell-based, human; conditions: MK-8931 50 μg/mL
Experimental: as §1
Tumorsphere formation assay was performed as described in our previous study (Shi et al., 2018). Glioma cells (1000 cells) were plated on the one well of a 96-well plate and maintained in the stem cell medium. […] The sizes and numbers of the tumor-sphere in the control and MK-8931 groups were furthered analyzed with ImageJ.

[5] = system: U937-derived M2 macrophages; assay: Immunoblot of macrophage markers in U937-derived M2 macrophages; design: expression of M2 macrophage markers (CD163 and ARG1): dose or concentration left out as unconfirmed
Experimental: In brief, U937 cells were primed by PMA (5 nM) for two days to generate M0 macrophages and then incubated with IL4 (20 ng/mL), IL10 (20 ng/mL), and TGFβ (20 ng/mL) for three days to produce M2-like macrophages. (B) Immunoblot analyses of BACE1, the M2 macrophage markers (CD163 and ARG1), and the total macrophage marker IBA1 in U937 monocytes and the U937-derived M2 macrophages expressing shRNAs against BACE1 (shBACE1) or non-targeting sequence (NT). […] (D) Immunoblot analyses of the M2 macrophage markers (CD163 and ARG1), the M1 macrophage markers (iNOS and HLA-DR), and the total macrophage marker IBA1 in the U937-derived M2 macrophages expressing shRNAs against BACE1 (shBACE1: #1 or #2) or non-targeting control (shNT). The U937-derived M2 macrophages were transduced with shBACE1 shNT through lentiviral infection.
In brief, U937 cells grown in a 10-cm tissue culture dish were primed by PMA (5 nM) for two days to produce M0 macrophages. Then the M0 macrophages were further induced by IL4 (20 ng/mL, Peprotech, 200-04), IL10 (20 ng/mL, Peprotech, 200-10), and TGFβ (20 ng/mL, Peprotech, 200-21) for three days to generate M2 macrophages.
In brief, cells were lysed with the RIPA buffer [50 mM TrisHCl (pH7.4), 150 mM NaCl, 2 mM EDTA, 1% (v/v) NP-40, 0.1% (w/v) SDS, protease inhibitor (one tablet per 10 mL RIPA buffer, Roche)] for 20 minutes on ice. […] The lysates were collected and subjected to SDS-PAGE and blotted onto the PVDF membranes (ASI, XR730). After blockade with 5% (w/v) non-fat milk (RPI, M17200) in TBST, the membranes were incubated with primary antibodies overnight at 4° C. After the incubation of the first antibodies, the membranes were washed three times with TBST for ten minutes each. Then, the membranes were incubated with the second HRP-linked antibodies in the 5% milk for one hour at room temperature.

HepG2 liver cancer cells = assay: Subcutaneous liver cancer xenografts (HepG2); format: in vivo, mouse; conditions: 50 mg/kg once daily oral gavage, from two weeks after inoculation; p<0.05
Description: (A-C) A preclinical trial of MK-8931 for liver cancer treatment xenograft models. HepG2 liver cancer cells (5×106) were transplanted into mouse right flank through subcutaneous injection to establish subcutaneous liver cancer xenografts. […] Tumors dissected from mice of each group were photographed (B) and weighed (C).

STAT3 (pSTAT3-Y705) = assay: Immunoblot of STAT3 activating phosphorylation in U937-derived M2 macrophages; format: cell-based, human; conditions: MK-8931 50 μg/mL three days
Description: FIG. 7, panels A-G. BACE1 Maintains M2 Macrophages through STAT3 Activation (A) Immunoblot analyses of STAT3 and STAT6 activation (pSTAT3-Y705 and pSTAT6-Y641) in U937-derived M2 macrophages affected by BACE1 knockdown. […] (B) Immunoblot analysis of STAT3 and STAT6 activation (pSTAT3-Y705 and pSTAT6-Y641) in U937-derived M2 macrophages in response to MK-8931 treatment. […] (C-E) In vivo analysis of STAT3 activating phosphorylation in TAMs by double immunofluorescent staining of IBA1 with pSTAT3-Y705 in GBM xenografts treated with MK-8931 or vehicle control. GBM xenografts were established by implantation of glioma stem cells (T4121) through intracranial injection. […] Representative images (C) showing the fluorescent staining of IBA1 (in green) and the pSTAT3 (in red) in MK-8931-treated or control GBM xenografts. […] Scale bar represents 3 μM. Ctl: Control. MK: MK-8931. […] Ectopic expression of STAT3-C attenuated the M2 to M1 switch caused by BACE1 knockdown.

[6] = 30 mg/kg once daily oral gavage two weeks, p<0.001
[7] = 0, 5, 10, 25, 50, and 100 μg/mL for three days
[8] = 50 μg/mL for 0, 12, 24, 48, 72, or 96 hours

## CN1C(N)=N[C@](C)(c2cc(NC(=O)c3ccc(F)cn3)ccc2F)CS1(=O)=O [MK-8931]
[1]; [6]
  IL1β expression (IHC intensity): significantly induced IL1β expression
  IL10 expression (IHC intensity): significantly reduced IL10 expression
  TGF-β expression (IHC intensity): significantly reduced TGF-β expression
  TNFα expression (IHC intensity): significantly induced TNFα expression
[1]; 30 mg/kg/daily oral, Days 7, 14, and 21
  tumor growth (mean bioluminescence): significantly inhibited tumor growth of GBM xenografts
[1]; 30 mg/kg/daily oral, log-rank p<0.01
  survival (Kaplan-Meier): significantly extended the survival of mice bearing the GBM tumors
[1]; 30 mg/kg/daily oral, p<0.001
  apoptosis (cleaved caspase-3+ cells): significantly increased apoptosis
[1]; 30 mg/kg/daily oral, p<0.01
  GSC population (SOX2+ cells): significantly reduced GSCs
  proliferative cells (Ki-67+): significantly reduced proliferative cells
  vessel density (CD31): significantly reduced vessel density
[2]; Days 7, 14 and 21
  tumor growth (mean bioluminescence): significantly inhibited tumor growth of lung ADC brain metastases
[2]; p<0.001
  M1 TAMs (HLA-DR+/IBA1+ cells): significantly increased M1 TAMs
  M2 TAMs (CD163+/IBA1+ cells): significantly reduced M2 TAMs
[2]; p<0.001 by log-rank
  survival (Kaplan-Meier): significantly extended the survival of animals bearing the intracranial lung ADC xenografts
[2]; p<0.01
  cell proliferation (fraction of Ki-67+ cells): significantly reduced cell proliferation
[2]; p<0.05
  apoptosis (fraction of cleaved caspase-3+ cells): significantly augmented apoptosis
  in vivo TAM phagocytosis (inclusion bodies): significantly increased TAM phagocytosis against human lung ADC cells
  vessel density (GLUT1+ cells): significantly reduced vessel density
[3]
  phagocytosis of BMDMs against human glioma cells: significantly promoted phagocytosis of BMDMs
[4]
  macrophage phagocytosis against cancer cells: promotes macrophage phagocytosis against cancer cells
[4]; MK-8931 50 μg/mL two days, T4121 tdTomato cells co-incubated two hours, p<0.001 vs vehicle
  phagocytosis of iPSC-derived macrophages against human glioma cells (inclusion bodies): potently induced phagocytosis of iPSC-derived macrophages
[4]; glioma cells and lung ADC cells
  screen of drug libraries and known inhibitors for promoters of macrophage phagocytosis: hit: hits
GSCs (T387 and T4121)
  apoptotic markers cleaved-PARP and cleaved caspase-3: did not induce apoptosis in GSCs in vitro
H1002 lung cancer cells
  tumor growth (tumor weight): markedly inhibited lung tumor growth
T4121 GSCs
  number and size of tumorspheres: did not affect GSC sphere formation
[5]; [7]
  M1 marker expression (iNOS and HLA-DR), dose series: induced M1 marker expression
  M2 marker expression (CD163 and ARG1), dose series: inhibited M2 marker expression in a dose-dependent manner
[5]; [8]
  M1 marker expression (iNOS and HLA-DR), time course: induced M1 marker expression in a time-dependent fashion
  M2 marker expression (CD163 and ARG1), time course: inhibited M2 marker expression
[5]; MK-8931 50 μg/mL three days, STAT3-C-Flag vs vector
  M2 to M1 switch with ectopic expression of constitutively activated STAT3 (STAT3-C): attenuated the M2 to M1 switch induced by MK-8931 treatment
[5]; MK-8931 (50 g/mL) three days
  expression of total macrophage marker IBA1: little effect
[5]; MK-8931 three days
  expression of M2 macrophage markers (CD163 and ARG1): reduced expression of the M2 macrophage markers
HepG2 liver cancer cells
  tumor growth (tumor weight): significantly inhibited liver tumor growth
STAT3 (pSTAT3-Y705)
  activating phosphorylation of STAT3 (pSTAT3-Y705): significantly down-regulated
